Here are results for 11 compounds from ChEMBL document CHEMBL1268837, “Novel CGRP receptor antagonists from central amide replacements causing a reversal of preferred chirality” (Bioorg Med Chem Lett, 2010).

The target of one experiment is T1, Calcitonin gene-related peptide type 1 receptor (Homo sapiens, UniProt O60894+Q16602). The experiment in a line: Displacement of [125I]hCGRP from human cloned CGRP receptor expressed in HEK293 cells. In kind it is cell-based. For orientation: Displacement assays read how much labelled ligand stays bound in the presence of the test substance.
T1 sequence (Q16602 whole entry, one chain of several): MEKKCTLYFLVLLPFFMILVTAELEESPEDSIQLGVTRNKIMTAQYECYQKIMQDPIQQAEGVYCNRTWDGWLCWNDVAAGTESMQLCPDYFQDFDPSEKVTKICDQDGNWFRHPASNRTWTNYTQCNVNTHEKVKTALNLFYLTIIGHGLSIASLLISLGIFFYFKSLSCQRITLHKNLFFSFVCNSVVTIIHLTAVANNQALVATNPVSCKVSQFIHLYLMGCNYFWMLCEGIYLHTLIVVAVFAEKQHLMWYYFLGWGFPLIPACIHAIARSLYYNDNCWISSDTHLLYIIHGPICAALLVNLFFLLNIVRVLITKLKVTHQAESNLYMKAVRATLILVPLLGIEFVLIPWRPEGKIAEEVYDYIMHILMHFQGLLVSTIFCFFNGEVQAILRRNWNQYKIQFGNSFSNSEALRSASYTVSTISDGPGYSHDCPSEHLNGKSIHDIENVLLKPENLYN
For `CC(C)(C)C(=O)N(Cc1cnc2cc3c(cc2c1)C[C@@]1(C3)C(=O)Nc2ncccc21)C[C@@H]1CCc2ccccc21`, the Ki (usually the dissociation constant of the complex between target and ligand, obtained from inhibition or displacement) stood at 37 pM. Still for that read-out and setting: the figure for `CC(C)(C)C(=O)N(Cc1ccc2nc3c(cc2c1)C[C@@]1(C3)C(=O)Nc2ncccc21)[C@@H]1CCc2ccccc21` is 110 pM; for `CC(C)(C)C(=O)N(Cc1cnc2nc3c(cc2c1)C[C@@]1(C3)C(=O)Nc2ncccc21)[C@@H]1CCc2ccccc21` it is 150 pM. For `CC(C)(C)C(=O)N(Cc1ccccc1)Cc1cnc2cc3c(cc2c1)C[C@@]1(C3)C(=O)Nc2ncccc21`, the Ki was determined as 1300 pM. As for `CC(C)(C)C(=O)N(Cc1cc(F)cc(F)c1)Cc1cnc2cc3c(cc2c1)C[C@@]1(C3)C(=O)Nc2ncccc21`, the Ki was found to be 690 pM.

Take `C[C@H](c1ccccc1)N(Cc1cnc2cc3c(cc2c1)C[C@@]1(C3)C(=O)Nc2ncccc21)C(=O)C(C)(C)C`: the Ki turned out to be 100 pM.

Consider `C[C@H](c1cc(F)cc(F)c1)N(Cc1cnc2cc3c(cc2c1)C[C@@]1(C3)C(=O)Nc2ncccc21)C(=O)C(C)(C)C`, for which the Ki came out at 120 pM. With `CC1(C)CC[C@@H](c2cc(F)cc(F)c2)N(Cc2cnc3cc4c(cc3c2)C[C@@]2(C4)C(=O)Nc3ncccc32)C1=O`, the Ki turned out to be 300 pM.

The next experiment concerns the target T1, Calcitonin gene-related peptide type 1 receptor. The experiment in a line: Binding affinity to human recombinant CGRP receptor.
Regarding `CN1C(=O)NC(=O)C12Cc1cc3ccc(CN(Cc4ccccc4)C(=O)C(C)(C)C)nc3cc1C2` (stereo unspecified), the Ki stood at 2200 pM.

In the case of `CN1C(=O)NC(=O)C12Cc1cc3cc(CN(Cc4ccccc4)C(=O)C(C)(C)C)cnc3cc1C2` (stereo unspecified), the Ki was 35000 pM. With `CN1C(=O)NC(=O)[C@]12Cc1cc3cc(CN(Cc4ccccc4)C(=O)C(C)(C)C)cnc3cc1C2`, the Ki stood at 12000 pM.
